In US9045468B2, “2,5-methano- and 2,5-ethano-tetrahydrobenzazepine derivatives and use thereof to block reuptake of norepinephrine, dopamine, and serotonin” (Albany Molecular Research, Inc., priority 2010, dated 2015):
pIC50: −log10 of the molar value. Like-named read-outs stand apart in the source and are kept apart here.

Columns and labels:
hNET = hNET (Homo sapiens (Human), UniProt P23975); assay: NET radioligand binding assay ([3H]nisoxetine, HEK-293 membranes); conditions: for IC50: recombinant HEK-293 membranes, [3H]nisoxetine, read-out: Binding Affinity (IC50, nM) NET
Sequence of hNET (P23975 whole entry): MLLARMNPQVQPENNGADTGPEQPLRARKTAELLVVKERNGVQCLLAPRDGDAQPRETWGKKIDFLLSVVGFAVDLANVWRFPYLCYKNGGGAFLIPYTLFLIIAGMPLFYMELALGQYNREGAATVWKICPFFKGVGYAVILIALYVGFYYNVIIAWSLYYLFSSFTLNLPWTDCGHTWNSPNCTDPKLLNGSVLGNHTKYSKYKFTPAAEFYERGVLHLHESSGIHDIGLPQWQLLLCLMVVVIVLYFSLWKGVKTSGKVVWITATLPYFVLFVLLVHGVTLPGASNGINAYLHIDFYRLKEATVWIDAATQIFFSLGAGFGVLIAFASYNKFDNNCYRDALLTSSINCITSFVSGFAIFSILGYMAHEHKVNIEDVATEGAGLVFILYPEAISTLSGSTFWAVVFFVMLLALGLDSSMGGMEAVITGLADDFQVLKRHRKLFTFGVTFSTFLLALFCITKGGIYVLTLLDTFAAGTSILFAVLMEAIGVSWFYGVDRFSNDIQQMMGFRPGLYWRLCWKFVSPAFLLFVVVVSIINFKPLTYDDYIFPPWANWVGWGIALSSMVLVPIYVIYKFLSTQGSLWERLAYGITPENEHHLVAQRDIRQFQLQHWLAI
Procedure: (§1) The medium was removed from the flasks and the cells rinsed with HBSS without Ca and without Mg. The cells were then incubated for 5-10 minutes in 10 mM Tris-Cl, pH 7.5, 5 mM EDTA before the cells were lifted with a combination of pipetting and scraping, as needed. The cell suspension was collected into centrifuge bottles and homogenized for 30 seconds with a Polytron homogenizer. The suspension was centrifuged for 30 minutes at 32,000×g, 4° C. The supernatant was decanted and the pellet resuspended and homogenized in 50 mM Tris-Cl, pH 7.5, 1 mM EDTA for 10 seconds. The suspension was then centrifuged again for 30 minutes at 32,000×g, 4° C. The supernatant was decanted and the pellet resuspended in 50 mM Tris-Cl, pH 7.5, 1 mM EDTA and briefly homogenized. A Bradford assay (Bio-rad) was performed and the membrane preparation diluted to 2 mg/ml with 50 mM Tris-Cl, pH 7.5, 1 mM EDTA. Aliquots were prepared, and then frozen and stored at −80° C.
Compounds were dissolved in 100% DMSO at a concentration 100 times the desired highest assay concentration, serially diluted 1:3 in 100% DMSO, and 1.0 μl/well of each solution was dispensed to a Nunc polypropylene, round bottom, 384-well plate. […] 50 μl/well of a 2× membrane preparation (0.4 mg/ml in 50 mM Tris-Cl, pH 7.5, 120 mM NaCl, 5 mM KCl) and 50 μl/well of a 2× radioligand solution (4 nM [^3H]nisoxetine in 50 mM Tris-Cl, pH 7.5, 120 mM NaCl, 5 mM KCl) were added to the well and the reaction incubated for 1 hour at room temperature. The contents of the assay plate were then transferred to a Millipore MultiscreenHTS GF/B filter plate which was pretreated with 0.5% PEI for at least one hour. The plate was vacuum filtered and washed with 7 washes of 100 μl/well 50 mM Tris-Cl, pH 7.5, 120 mM NaCl, 5 mM KCl chilled to 4° C. The filtration and washing were completed in less than 90 seconds. The plates were air-dried overnight, 12 μl/well of MicroScint scintillation fluid added, and the plates counted in a Trilux.
(§2) Each plate was run in triplicate, and the concentration response curve thus generated was fit using the four-parameter dose response equation, Y=Bottom+(Top-Bottom)/(1+10^((Log IC50−X)*HillSlope)) in order to determine the IC50 value for each compound. The radioligand concentration chosen for each assay corresponds to the Kd concentration determined through saturation binding analysis for each assay.

hSERT = hSERT (Homo sapiens (Human), UniProt P31645); assay: SERT radioligand binding assay ([125I]RTI-55, HEK-293 membranes); conditions: for IC50: recombinant HEK-293 membranes, [125I]RTI-55, read-out: Binding Affinity (IC50, nM) SERT
Sequence of hSERT (P31645 whole entry): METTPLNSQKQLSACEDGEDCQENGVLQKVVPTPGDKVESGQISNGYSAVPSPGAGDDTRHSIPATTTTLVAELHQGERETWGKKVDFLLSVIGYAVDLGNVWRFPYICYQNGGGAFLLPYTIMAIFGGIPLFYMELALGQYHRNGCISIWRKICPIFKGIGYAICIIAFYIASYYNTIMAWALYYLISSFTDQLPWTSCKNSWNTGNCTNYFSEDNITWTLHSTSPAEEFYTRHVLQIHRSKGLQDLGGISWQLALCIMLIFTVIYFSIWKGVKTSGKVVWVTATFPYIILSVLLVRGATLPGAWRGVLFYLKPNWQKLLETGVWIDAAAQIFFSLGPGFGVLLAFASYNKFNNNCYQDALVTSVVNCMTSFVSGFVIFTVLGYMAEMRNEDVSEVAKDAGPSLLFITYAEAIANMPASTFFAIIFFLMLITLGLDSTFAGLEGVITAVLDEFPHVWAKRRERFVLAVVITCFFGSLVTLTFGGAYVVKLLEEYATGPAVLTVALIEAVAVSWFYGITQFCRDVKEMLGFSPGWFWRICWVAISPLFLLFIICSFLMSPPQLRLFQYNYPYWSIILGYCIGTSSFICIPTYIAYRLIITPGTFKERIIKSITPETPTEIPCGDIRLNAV
Procedure: as §1
Compounds were dissolved in 100% DMSO at a concentration 100 times the desired highest assay concentration, serially diluted 1:3 in 100% DMSO, and 0.4 μl/well of each solution was dispensed to a Nunc polypropylene, round bottom, 384-well plate. […] The contents of the assay plate were then transferred to a Millipore MultiscreenHTS GF/B filter plate which was pretreated with 0.5% PEI for at least one hour. The plate was vacuum filtered and washed with 7 washes of […] 50 mM Tris-Cl, pH 7.5, 120 mM NaCl, 5 mM KCl chilled to 4° C. The filtration and washing were completed in less than 90 seconds. The plates were air-dried overnight, 12 μl/well of MicroScint scintillation fluid added, and the plates counted in a Trilux.
as §2

hDAT = hDAT (Homo sapiens (Human), UniProt Q01959); assay: DAT radioligand binding assay ([125I]RTI-55, HEK-293 membranes); conditions: recombinant HEK-293 membranes, [125I]RTI-55; read-out: Binding Affinity (IC50, nM) DAT
Sequence of hDAT (Q01959 whole entry): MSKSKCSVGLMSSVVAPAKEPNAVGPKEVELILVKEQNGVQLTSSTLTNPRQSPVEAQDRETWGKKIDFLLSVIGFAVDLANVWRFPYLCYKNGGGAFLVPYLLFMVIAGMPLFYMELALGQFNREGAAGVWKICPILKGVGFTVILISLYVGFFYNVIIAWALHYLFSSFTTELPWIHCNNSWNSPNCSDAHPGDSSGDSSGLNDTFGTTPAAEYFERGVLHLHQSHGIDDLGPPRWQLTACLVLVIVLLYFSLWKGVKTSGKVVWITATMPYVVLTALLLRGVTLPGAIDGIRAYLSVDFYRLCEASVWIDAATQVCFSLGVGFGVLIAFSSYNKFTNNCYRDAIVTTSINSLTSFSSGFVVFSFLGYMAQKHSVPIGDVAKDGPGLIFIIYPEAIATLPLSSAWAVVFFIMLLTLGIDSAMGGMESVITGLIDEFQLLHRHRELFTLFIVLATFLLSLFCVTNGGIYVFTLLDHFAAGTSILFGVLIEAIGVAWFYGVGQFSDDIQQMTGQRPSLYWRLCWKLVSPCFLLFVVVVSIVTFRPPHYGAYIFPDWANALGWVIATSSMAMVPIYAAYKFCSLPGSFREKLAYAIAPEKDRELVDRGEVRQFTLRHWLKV
Procedure: as §1, with “Recombinant HEK-293 cells expressing either the hSERT, hDAT, or hNET proteins were harvested from T-175 flasks as follows. The medium” for “The medium”
Compounds were dissolved in 100% DMSO at a concentration 100 times the desired highest assay concentration, serially diluted 1:3 in 100% DMSO, and 0.4 μl/well of each solution was dispensed to a Nunc polypropylene, round bottom, 384-well plate. […] 20 ul/well of a 2× membrane preparation (12.5 μg/ml in 30 mM sodium phosphate buffer, pH 7.9 at 4° C.) and 20 μl/well of a 2× radioligand solution (250 pM [^125I]RTI-55 in 30 mM sodium phosphate buffer, pH 7.9 at 4° C.) were added to the well and the reaction incubated for 1 hour at room temperature. The contents of the assay plate were then transferred to a Millipore MultiscreenHTS GF/B filter plate which was pretreated with 0.5% PEI for at least one hour. The plate was vacuum-filtered and washed with 7 washes of 100 μl/well 50 mM Tris-Cl, pH 7.5, 120 mM NaCl, 5 mM KCl chilled to 4° C. The filtration and washing were completed in less than 90 seconds. The plates were air-dried overnight, 12 μl/well of MicroScint scintillation fluid added, and the plates counted in a Trilux.
as §2

Row | Compound | IC50 (hNET) [nM] | IC50 (hSERT) [nM] | IC50 (hDAT) [nM] | pIC50 (hNET) | pIC50 (hSERT)
1 | CS(=O)(=O)c1ccc(-c2ccc3c(c2)CN2CCC3(c3ccc(Cl)cc3)C2)cc1 (racemic) [Example 9, rac-5-(4-chlorophenyl)-2,5-methano-8-(4-(methylsulfonyl)phenyl)-2,3,4,5-tetrahydro-1H-benzo[c]azepine] | 303 | 23.5 | 435 |  | 
2 | N#Cc1ccc(-c2ccc3c(c2)CN2CCC3(c3ccc(Cl)cc3)C2)cc1 (racemic) [Example 8, rac-4-(5-(4-chlorophenyl)-2,5-methano-2,3,4,5-tetrahydro-1H-benzo[c]azepin-8-yl)benzonitrile] | 1210 | 16.6 | 450 |  | 
3 | COc1ccc(-c2ccc3c(c2)CN2CCC3(c3ccc(Cl)c(Cl)c3)CC2)nn1 [Example 40, 5-(3,4-dichlorophenyl)-8-(6-methoxypyridazin-3-yl)-2,5-ethano-2,3,4,5-tetrahydro-1H-benzo[c]azepine] | 148 | 9.8 | 5.9 |  | 
4 | N#Cc1cccc(-c2ccc3c(c2)CN2CCC3(c3ccc(Cl)cc3)CC2)c1 [Example 27, 3-(5-(4-chlorophenyl)-2,5-ethano-2,3,4,5-tetrahydro-1H-benzo[c]azepin-8-yl)benzonitrile] |  |  | 135 | 6.45 | 8.47
5 | Clc1ccc(C23CCN(CC2)Cc2cc(Oc4cnccn4)ccc23)cc1 [Example 33, 5-(4-chlorophenyl)-2,5-ethano-8-(pyrazin-2-yloxy)-2,3,4,5-tetrahydro-1H-benzo[c]azepine] | 910 | 6.1 | 116 |  | 
6 | COc1ccc2c(c1)CN1CCC2(c2ccc(Cl)cc2)CC1 [Example 12, 5-(4-chlorophenyl)-8-methoxy-2,5-ethano-2,3,4,5-tetrahydro-1H-2-benzo[c]azepine] | 881 | 7.8 | 52 |  | 
7 | Oc1ccc2c(c1)CN1CCC2(c2ccc(Cl)cc2)C1 (racemic) [Example 2, rac-5-(4-chlorophenyl)-2,5-methano-2,3,4,5-tetrahydro-1H-benzo[c]azepin-8-ol] |  | 126 |  |  | 
8 | Clc1ccc(C23CCN(CC2)Cc2cc(-c4cnc5ccccc5n4)ccc23)cc1 [Example 21, 5-(4-chlorophenyl)-2,5-ethano-8-(quinoxalin-2-yl)-2,3,4,5-tetrahydro-1H-benzo[c]azepine] | 1540 | 5.2 | 353 |  | 
9 | Clc1ccc(C23CCN(CC2)Cc2cc(-c4ccc5ncnn5c4)ccc23)cc1Cl [Example 37, 8-([1,2,4]triazolo[1,5-a]pyridin-6-yl)-5-(3,4-dichlorophenyl)-2,5-ethano-2,3,4,5-tetrahydro-1H-benzo[c]azepine] | 119 | 8.6 | 18.5 |  | 
10 | FC(F)Oc1ccc(-c2ccc3c(c2)CN2CCC3(c3ccc(Cl)cc3)C2)nn1 (single isomer, unassigned) [6(+), 5-(4-chlorophenyl)-8(6-(difluoromethoxy)pyridazin-3-yl)-2,5-methano-2,3,4,5-tetrahydro-1H-benzo[c]azepine] | 1170 | 19.3 | 1060 |  | 
11 | Clc1ccc(C23CCN(CC2)Cc2cc(Oc4cnccn4)ccc23)cc1Cl [Example 44, 5-(3,4-dichlorophenyl)-2,5-ethano-8-(pyrazin-2-yloxy)-2,3,4,5-tetrahydro-1H-benzo[c]azepine] | 161 | 4.7 | 33.9 |  | 
12 | c1cc(C23CCN(CC2)Cc2cc(N4CCOCC4)ccc23)ccc1N1CCOCC1 [Example 29, 4-(2,5-ethano-5-(4-morpholinophenyl)-2,3,4,5-tetrahydro-1H-benzo[c]azepin-8-yl)morpholine] | 5460 | 328 | 5260 |  | 
13 | Fc1ccc(C23CCN(Cc4cc(-c5ccc(C(F)(F)F)nn5)ccc42)C3)cc1Cl (single isomer, unassigned) [56(−), 5-(3-chloro-4-fluorophenyl)-2,5-methano-8-(6-(trifluoromethyl)pyridazin-3-yl)-2,3,4,5-tetrahydro-1H-benzo[c]azepine] | 798 | 57.8 | 243 |  | 
14 | COc1ccc2c(c1)CN1CCC2(c2ccc(Cl)cc2)C1 (racemic) [Example 1, rac-5-(4-chlorophenyl)-8-methoxy-2,5-methano-2,3,4,5-tetrahydro-1H-benzo[c]azepine] | 675 | 74.2 |  |  | 
15 | O=c1[nH]c2ccc(-c3ccc4c(c3)CN3CCC4(c4ccc(Cl)c(Cl)c4)C3)cc2o1 (single isomer, unassigned) [11(−), 8-(2-oxo-2,3-dihydrobenzo[d]oxazol-6-yl)-5-(3,4-dichlorophenyl)-2,5-methano-2,3,4,5-tetrahydro-1H-benzo[c]azepine] | 92.4 | 3.9 | 19.6 |  | 
16 | Clc1ccc(C23CCN(CC2)Cc2cc(N4CCOCC4)ccc23)cc1 [Example 28, 4-(5-(4-chlorophenyl)-2,5-ethano-2,3,4,5-tetrahydro-1H-benzo[c]azepin-8-yl)morpholine] | 438 | 8 | 58.9 |  | 
17 | FC(F)(F)c1nnc2ccc(-c3ccc4c(c3)CN3CCC4(c4ccc(Cl)cc4)C3)cn12 (racemic) [Example 4, rac-5-(4-chlorophenyl)-2,5-methano-8-(3-(trifluoromethyl)-[1,2,4]triazolo[4,3-a]pyridin-6-yl)-2,3,4,5-tetrahydro-1H-benzo[c]azepine] | 70.5 |  | 603 |  | 
18 | FC(F)Oc1ccc2c(c1)CN1CCC2(c2ccc(Cl)c(Cl)c2)CC1 [Example 46, 5-(3,4-dichlorophenyl)-2,5-ethano-8-(difluoromethoxy)-2,3,4,5-tetrahydro-1H-benzo[c]azepine] | 140 | 3 | 55.2 |  | 
19 | Cc1cc2ncnn2cc1-c1ccc2c(c1)CN1CCC2(c2ccc(Cl)c(Cl)c2)CC1 [Example 43, 5-(3,4-dichlorophenyl)-2,5-ethano-8-(7-methyl-[1,2,4]triazolo[1,5-a]pyridin-6-yl)-2,3,4,5-tetrahydro-1H-benzo[c]azepine] | 373 | 18.9 | 43.8 |  | 
